{"source": "paper PMC10541198", "about": "“Specific quinone reductase 2 inhibitors reduce metabolic burden and reverse Alzheimer’s disease phenotype in mice” (The Journal of Clinical Investigation, 2023)", "key": {"5xFAD mice": {"tested_on": "5xFAD mice", "assay": "Open field in 5xFAD mice", "format": "in vivo, mouse", "conditions": "for hind-limb rearing frequency / maximum movement bout duration / meandering / proportion of time moving / total distance traveled / total movement duration / average velocity: 5xFAD 1 month; for Sup. Fig. 5-2C, open field parameter / Sup. Fig. 5-2D, open field parameter / Sup. Fig. 5-2E, open field parameter / Sup. Fig. 5-2F, open field parameter / Sup. Fig. 5-2G, open field parameter / Sup. Fig. 5-2H, open field parameter / Sup. Fig. 5-2I, open field parameter: individual animals", "experimental": "Mice were individually placed within a cage and taken to a dimly lit room containing an open field arena 50 x 50 cm in size. They were gi ve n 10 min prior to be i ng placed within the arena, where f or a period of 5 min they were allowed to explore. Two weeks later, this was repeated. The mice were filmed with an Ikegami ICD-49E camera with EthoVision 14 (Noldus Information Technology). Th e fl oor was ei ther whit e or black,dependingon mous e coat c ol or, to allow automatic analysisof movement par am et ers, apar t from rearing which was manually counted. […]"}, "QR2Δ HCT116 cells": {"tested_on": "QR2Δ HCT116 cells", "assay": "H2DCFDA detection of cellular ROS in QR2 KO cells", "format": "cell-based, human", "conditions": "20 μM, 3 hour", "experimental": "To establish direct target engagement and cell membrane permeability, a cellular thermal shift assay (CETSA) was carried out, using leading QR2is YB’s-537, 800, and 808. Following a 1 hour preincubation with 5 μM of the QR2is or vehicle, thermal aggregation curves (Taggs) of QR2 expressed in HEK293T were measured in increasing temperatures. All QR2is increased QR2 thermal stability compared with vehicle (Supplemental Figure 2A). Based on the Tagg curves we selected 73°C for isothermal dose-response fingerprint (IDTRF) experiments (Supplemental Figure 2B). The ITDRF allowed the relative quantification of the binding of each of the QR2is to QR2, measured as the EC50 (Figure 3A). […] We evaluated the safety of the QR2is using cell toxicity and viability assays. […] Cell viability was assessed by XTT assay in HEK239T cells, using a dose response, with 3- or 24-hour incubations of the leading QR2is. […] We then assessed WT HCT116 cells by immunoblot (Supplemental Figure 2, C and D), after being treated with YB-800 (2 μM) for 4 consecutive days. […]\nThe cells wer e har ves t ed a nd resuspended in 1% cl ear m e di um ( DM EM – with no phenol red, suppl em ent ed with 1% FBS, 1% L-Glutamine and 1% Penicillin-Streptomycin). […] The plate wa s then incubated in the dark at 37°C f or 3 h, before reading in a Tecan M200 Pro florescence microplate reader, using wavelengths Ex/Em = 485 nm / 535 nm . […]"}}, "note": "Where “and” joins values, the source holds several entries; their conditions need not be identical. Equal values may be shown once.", "data": [{"smiles": "Cc1ccc(-c2cn3cccc(C)c3n2)cc1S(=O)(=O)N1CCNCC1", "note": "[YB-537]", "values": [{"measurement": "hind-limb rearing frequency", "setting": "5xFAD mice; both sexes", "value": "35.72 ± 3.292"}, {"measurement": "maximum movement bout duration", "setting": "5xFAD mice; both sexes", "value": "8.061 ± 1.322", "unit": "s"}, {"measurement": "meandering", "setting": "5xFAD mice; both sexes", "value": "733.4 ± 42.8", "unit": "deg/cm"}, {"measurement": "proportion of time moving", "setting": "5xFAD mice; both sexes", "value": "81.44 ± 1.134", "unit": "%"}, {"measurement": "total distance traveled", "setting": "5xFAD mice; both sexes", "value": "3244 ± 237.9", "unit": "cm"}, {"measurement": "total movement duration", "setting": "5xFAD mice; both sexes", "value": "244.3 ± 3.402", "unit": "s"}, {"measurement": "average velocity", "setting": "5xFAD mice; both sexes, n=16", "value": "10.9 ± 0.800", "unit": "cm/s"}, {"measurement": "hind-limb rearing frequency", "setting": "5xFAD mice; females", "value": "35.29 ± 4.894"}, {"measurement": "maximum movement bout duration", "setting": "5xFAD mice; females", "value": "9.677 ± 3.012", "unit": "s"}, {"measurement": "meandering", "setting": "5xFAD mice; females", "value": "696.3 ± 65.26", "unit": "deg/cm"}, {"measurement": "proportion of time moving", "setting": "5xFAD mice; females", "value": "81.84 ± 1.856", "unit": "%"}, {"measurement": "total distance traveled", "setting": "5xFAD mice; females", "value": "3581 ± 484.5", "unit": "cm"}, {"measurement": "total movement duration", "setting": "5xFAD mice; females", "value": "245.5 ± 5.568", "unit": "s"}, {"measurement": "average velocity", "setting": "5xFAD mice; females, n=7", "value": "12.03 ± 1.625", "unit": "cm/s"}, {"measurement": "hind-limb rearing frequency", "setting": "5xFAD mice; males", "value": "36.06 ± 4.703"}, {"measurement": "maximum movement bout duration", "setting": "5xFAD mice; males", "value": "6.804 ± 0.2919", "unit": "s"}, {"measurement": "meandering", "setting": "5xFAD mice; males", "value": "762.2 ± 58.17", "unit": "deg/cm"}, {"measurement": "proportion of time moving", "setting": "5xFAD mice; males", "value": "81.13 ± 1.5", "unit": "%"}, {"measurement": "total distance traveled", "setting": "5xFAD mice; males", "value": "2983 ± 179.3", "unit": "cm"}, {"measurement": "total movement duration", "setting": "5xFAD mice; males", "value": "243.4 ± 4.5", "unit": "s"}, {"measurement": "average velocity", "setting": "5xFAD mice; males, n=9", "value": "10.01 ± 0.611", "unit": "cm/s"}, {"measurement": "Sup. Fig. 5-2C, open field parameter", "setting": "5xFAD mice; Females", "value": "10.98 and 10.27 and 10.24 and 21.02 and 13.07 and 7.45 and 11.20"}, {"measurement": "Sup. Fig. 5-2D, open field parameter", "setting": "5xFAD mice; Females", "value": "3256.8 and 3049.8 and 3043.6 and 6259.0 and 3891.4 and 2217.1 and 3346.6"}, {"measurement": "Sup. Fig. 5-2E, open field parameter", "setting": "5xFAD mice; Females", "value": "773.0 and 764.4 and 714.5 and 402.2 and 601.2 and 962.5 and 656.3"}, {"measurement": "Sup. Fig. 5-2F, open field parameter", "setting": "5xFAD mice; Females", "value": "6.70 and 6.10 and 6.62 and 27.48 and 6.06 and 5.20 and 9.58"}, {"measurement": "Sup. Fig. 5-2G, open field parameter", "setting": "5xFAD mice; Females", "value": "244.56 and 241.26 and 242.64 and 269.82 and 249.06 and 220.20 and 251.04"}, {"measurement": "Sup. Fig. 5-2H, open field parameter", "setting": "5xFAD mice; Females", "value": "81.52 and 80.42 and 80.88 and 89.94 and 83.02 and 73.40 and 83.68"}, {"measurement": "Sup. Fig. 5-2I, open field parameter", "setting": "5xFAD mice; Females", "value": "50 and 30.5 and 32 and 31.5 and 55 and 17 and 31"}, {"measurement": "Sup. Fig. 5-2C, open field parameter", "setting": "5xFAD mice; Males + Females", "value": "10.98 and 10.27 and 10.24 and 21.02 and 7.23 and 10.34 and 8.54 and 12.00 and 10.63 and 9.25 and 12.61 and 11.34 and 8.16 and 13.07 and 7.45 and 11.20"}, {"measurement": "Sup. Fig. 5-2D, open field parameter", "setting": "5xFAD mice; Males + Females", "value": "3256.8 and 3049.8 and 3043.6 and 6259.0 and 2163.2 and 3078.1 and 2557.7 and 3556.2 and 3161.5 and 2756.6 and 3753.0 and 3376.0 and 2440.2 and 3891.4 and 2217.1 and 3346.6"}, {"measurement": "Sup. Fig. 5-2E, open field parameter", "setting": "5xFAD mice; Males + Females", "value": "773.0 and 764.4 and 714.5 and 402.2 and 993.0 and 822.7 and 744.6 and 500.6 and 644.6 and 955.7 and 543.5 and 756.2 and 899.4 and 601.2 and 962.5 and 656.3"}, {"measurement": "Sup. Fig. 5-2F, open field parameter", "setting": "5xFAD mice; Males + Females", "value": "6.70 and 6.10 and 6.62 and 27.48 and 6.46 and 7.38 and 6.24 and 6.00 and 7.90 and 5.98 and 6.32 and 8.40 and 6.56 and 6.06 and 5.20 and 9.58"}, {"measurement": "Sup. Fig. 5-2G, open field parameter", "setting": "5xFAD mice; Males + Females", "value": "244.56 and 241.26 and 242.64 and 269.82 and 228.20 and 238.00 and 244.72 and 264.44 and 254.26 and 226.58 and 258.62 and 243.36 and 232.42 and 249.06 and 220.20 and 251.04"}, {"measurement": "Sup. Fig. 5-2H, open field parameter", "setting": "5xFAD mice; Males + Females", "value": "81.52 and 80.42 and 80.88 and 89.94 and 76.07 and 79.33 and 81.57 and 88.15 and 84.75 and 75.53 and 86.21 and 81.12 and 77.47 and 83.02 and 73.40 and 83.68"}, {"measurement": "Sup. Fig. 5-2I, open field parameter", "setting": "5xFAD mice; Males + Females", "value": "50.0 and 30.5 and 32.0 and 31.5 and 12.5 and 27.5 and 35.0 and 60.5 and 43.0 and 34.0 and 45.0 and 44.0 and 23.0 and 55.0 and 17.0 and 31.0"}, {"measurement": "Sup. Fig. 5-2C, open field parameter", "setting": "5xFAD mice; Males", "value": "12.00 and 10.63 and 9.25 and 12.61 and 11.34 and 8.16 and 7.23 and 10.34 and 8.54"}, {"measurement": "Sup. Fig. 5-2D, open field parameter", "setting": "5xFAD mice; Males", "value": "3556.2 and 3161.5 and 2756.6 and 3753.0 and 3376.0 and 2440.2 and 2163.2 and 3078.1 and 2557.7"}, {"measurement": "Sup. Fig. 5-2E, open field parameter", "setting": "5xFAD mice; Males", "value": "500.6 and 644.6 and 955.7 and 543.5 and 756.2 and 899.4 and 993.0 and 822.7 and 744.6"}, {"measurement": "Sup. Fig. 5-2F, open field parameter", "setting": "5xFAD mice; Males", "value": "6.00 and 7.90 and 5.98 and 6.32 and 8.40 and 6.56 and 6.46 and 7.38 and 6.24"}, {"measurement": "Sup. Fig. 5-2G, open field parameter", "setting": "5xFAD mice; Males", "value": "264.44 and 254.26 and 226.58 and 258.62 and 243.36 and 232.42 and 228.20 and 238.00 and 244.72"}, {"measurement": "Sup. Fig. 5-2H, open field parameter", "setting": "5xFAD mice; Males", "value": "88.15 and 84.75 and 75.53 and 86.21 and 81.12 and 77.47 and 76.07 and 79.33 and 81.57"}, {"measurement": "Sup. Fig. 5-2I, open field parameter", "setting": "5xFAD mice; Males", "value": "60.5 and 43 and 34 and 45 and 44 and 23 and 12.5 and 27.5 and 35"}]}, {"smiles": "Cc1ccc(-c2cn3cccc(C)c3n2)cc1S(=O)(=O)N1CCC(C)CC1", "note": "[YB-800]", "values": [{"measurement": "ROS levels (replicates)", "setting": "QR2Δ HCT116 cells", "value": "0.1657 and -0.09332 and -0.11 and 0.01889 and -0.0308"}]}]}
